Legend:
[1] = system: c-Myc; experiment: Drug inhibition assay: BLI of 293T stable cells expressing the c-Myc sensor (293T ST), normalized to 293T FST; type: cell-based, human; details: 293T ST cells; after normalization to FL activity of 293T FST cells; AT 16 h
Experimental: (§1) To test the ability of the sensor to monitor c-Myc phosphorylation levels on drug treatment, the SKBR3 and 293T stable cells (SK ST and 293T ST) were established that constitutively express the sensor. SKBR3 and 293T stable cells were also constructed that constitutively express the full-length FL (SK FST and 293T FST) for the control of direct drug effect on FL activity.
Luciferase Activity Assay: BLI of luciferase activity in intact cells was performed as described previously (Hann (2006) Semin Cancer Biol 16(4):288-302). In brief, 24 h after transfection, culture medium was replaced with a PBS solution (pH 7.0) of 45 μg/mL D-Luc for FL imaging or of 10 μg/mL of Clz for RL imaging with the IVIS BLI system (Xenogen). Images were acquired at 2-min intervals until the peak signal was reached. The photon output of FL or RL imaging in transiently transfected cells was normalized to co-expressed RL or FL activity, respectively, measured by an in vitro luminometry assay as described previously (Chan et al. (2008) Cancer Res. 68:216-226), then normalized to the total protein in the cell lysates, measured by the BioRad DC protein assay as directed by the manufacturer. In stable cells, the photon output of FL imaging was normalized to the total protein in the cell lysates. […]

[2] = system: c-Myc; experiment: Drug inhibition assay: BLI of SKBR3 stable cells constitutively expressing the c-Myc sensor (SK ST), normalized to full-length FL cells (SK FST); type: cell-based, human; details: for complemented FL activity: SK ST cells, after normalization to effect on FL activity of SK FST cells, PD98059 2 h, U0126 1 h, AT 16 h
Experimental: as §1
Luciferase Activity Assay: BLI of luciferase activity in intact cells was performed as described previously (Hann (2006) Semin Cancer Biol 16(4):288-302). In brief, 24 h after transfection, culture medium was replaced with a PBS solution (pH 7.0) of 45 μg/mL D-Luc for FL imaging or of 10 μg/mL of Clz for RL imaging with the IVIS BLI system (Xenogen). Images were acquired at 2-min intervals until the peak signal was reached. The photon output of FL or RL imaging in transiently transfected cells was normalized to co-expressed RL or FL activity, respectively, measured by an in vitro luminometry assay as described previously (Chan et al. (2008) Cancer Res. 68:216-226), then normalized to the total protein in the cell lysates, measured by the BioRad DC protein assay as directed by the manufacturer. In stable cells, the photon output of FL imaging was normalized to the total protein in the cell lysates.
(§2) Drug Inhibition Assay: SKBR3 stable cells constitutively expressing the sensor system (SK ST) or the full-length FL (SK FST) were treated with PD98059 (Cell Signaling) for 2 h, U0126 (Cell Signaling) for 1 h, and purified AT (Sequoia Research Products) for 16 h at the indicated concentrations and imaged with D-Luc in the IVIS 50 BLI system (FIGS. 6A and 6B, and FIGS. 10A-12D). In addition, 293T stable cells constitutively expressing the sensor system (293T ST) or the full-length FL (293T FST) were treated with AT for 16 h at the indicated concentrations (FIGS. 6A and 6B, and FIGS. 13A-13D) and imaged with D-Luc in the IVIS 50 system. The photon output of FL imaging was normalized to the total protein content, and the FL activity of SK ST or 293T ST was normalized to that of SK FST or 293T FST, respectively. SKBR3 and 293T cells were treated as above and lysed for Western blot analysis of phospho c-Myc, c-Myc, and β-actin proteins. The correlation coefficient between the fold change of normalized FL activity and the fold change of normalized phospho c-Myc level (phospho c-Myc/β-actin) was determined based on the R^2 value.

[3] = system: c-Myc; details: Shachaf et al. 2007; cited from earlier work
[4] = system: c-Myc; experiment: Western blot analysis of endogenous phospho c-Myc in 293T cells; type: cell-based, human
Experimental: Western Blot Analysis: Total cell lysates were collected using 1× cell lysis buffer (Cell Signaling), as directed by the manufacturer. The protein concentration was determined using the BioRad DC protein assay. SDS/PAGE analysis of 50 μg of protein was transferred to an lmmobilon-P membrane (Millipore). Anti-phosphor-c-Myc (Thr58/Ser62) and anti-c-Myc antibody (Cell Signaling) were used to visualize the phospho c-Myc and c-Myc protein, respectively, as directed by the manufacturer. Anti-FLuc-HRP antibody was used to detect the FL fragments, as directed by the manufacturer (Sigma-Aldrich). β-actin protein was used as a loading control and detected by anti-β-actin antibody (Sigma-Aldrich). […] Protein levels were determined by quantifying the band intensities on Western blot analysis using ImageJ's ROI manager.
Drug Inhibition Assay: SKBR3 stable cells constitutively expressing the sensor system (SK ST) or the full-length FL (SK FST) were treated with PD98059 (Cell Signaling) for 2 h, U0126 (Cell Signaling) for 1 h, and purified AT (Sequoia Research Products) for 16 h at the indicated concentrations and imaged with D-Luc in the IVIS 50 BLI system (FIGS. 6A and 6B, and FIGS. 10A-12D). […] The correlation coefficient between the fold change of normalized FL activity and the fold change of normalized phospho c-Myc level (phospho c-Myc/β-actin) was determined based on the R^2 value.

[5] = system: c-Myc; experiment: Western blot analysis of endogenous phospho c-Myc in SKBR3 cells; type: cell-based, human; details: Western blot
Experimental: FIGS. 26A and 26B illustrate the inhibition of endogenous c-Myc. FIG. 26A: Western blot analysis of SKBR3 cells after NTZ treatment was performed using phospho c-Myc, c-Myc protein, and β-actin antibodies. […] The fold-change of phospho c-Myc level was plotted against the log scale of NTZ concentration.
Western Blot Analysis: Total cell lysates were collected using 1× cell lysis buffer (Cell Signaling), as directed by the manufacturer. The protein concentration was determined using the BioRad DC protein assay. SDS/PAGE analysis of 50 μg of protein was transferred to an lmmobilon-P membrane (Millipore). Anti-phosphor-c-Myc (Thr58/Ser62) and anti-c-Myc antibody (Cell Signaling) were used to visualize the phospho c-Myc and c-Myc protein, respectively, as directed by the manufacturer. Anti-FLuc-HRP antibody was used to detect the FL fragments, as directed by the manufacturer (Sigma-Aldrich). β-actin protein was used as a loading control and detected by anti-β-actin antibody (Sigma-Aldrich). Immunoblots were developed using the Pierce ECL Kit, as directed by the manufacturer. Protein levels were determined by quantifying the band intensities on Western blot analysis using ImageJ's ROI manager.
as §2

[6] = system: SK ST and SK FST xenografts; experiment: BLI of SK ST and SK FST subcutaneous xenografts in nude mice under AT treatment; type: in vivo
Experimental: The mice underwent gavage with AT (20 μL, 1.25 mM; n=5) or with PBS (20 μL; n=5) every other day.
BLI of Living Mice: BLI of mouse xenografts was performed with the IVIS Spectrum optical imaging system (Xenogen) as described previously (Chan et al. (2008) Cancer Res. 68:216-226, incorporated herein by refrence in its entirety), with some modifications. At 4 h after transient transfection with the indicated constructs (FIG. 7A), 5×10^6 SKBR3 cells were implanted subcutaneously into the indicated locations of nude mice (nu/nu; n=3). At 16 h after cell implantation, a Clz PBS (0.3 μg/μL; 100 μL) solution was injected intravenously for RL imaging. Then, 8 h later, FL imaging was acquired with D-Luc PBS solution (45 μg/μL; 100 μL) via intraperitoneal injection. Subsequently, 5×10^6 each of SK ST and SK FST cells were implanted subcutaneously into nude mice (nu/nu; n=10) as indicated (FIG. 8A). FL imaging was performed 1 day after the implantation and every other day thereafter. After each FL imaging, half of the mice underwent gavage with AT PBS solution (1.25 mM; 20 μL), and the other half did so with PBS only (20 μL). After 23 d of treatment, the mice were killed, and xenograft tissue samples were collected for Western blot analysis of phospho c-Myc, c-Myc, and α-tubulin proteins.

[7] = system: c-Myc; experiment: Hydrodynamic injection of the c-Myc sensor and BLI in Eμ-tTA/Tet-O-MYC transgenic mice; type: in vivo
Description: To test the in vivo application of the sensor system, SKBR3 cells were first transiently transfected separately with equal DNA molar amounts of the vectors pcDNA3.1(+), GSK 35-433-CFL/NFL-c-Myc or GSK 35-433-CFL/NFL-c-Myc T851 and implanted them subcutaneously in different locations in each nude mouse (n=3; FIG. 7A). hRL was also co-expressed for control of transfection efficiency. […] However, on intraperitoneal injection of the FL substrate D-Luciferin (D-Luc), xenografts carrying pcDNA3.1(+) had very low complemented FL activity, whereas those carrying GSK 35-433-CFL/NFL-c-Myc had 10.6-fold higher activity. Those carrying GSK 35-433-CFL/NFL-c-Myc T851 had 4.7-fold higher activity after normalization to their hRL activity (FIG. 7C). Thus, the complemented FL activity determined by the phosphorylation status of NFL-c-Myc can be imaged and quantified in a mouse xenograft model. The sensor system was also transiently expressed in the liver of two transgenic mice using hydrodynamic injection. These mice carried a liver-specific transgene of c-Myc under control of the Tet system (Shachaf et al. (2007) Blood 110: 2674-2684).
Both mice had doxycycline discontinued, followed by a 29-day course of treatment with AT in one mouse and with PBS in the other mouse. […] This signal reduction was consistent with the reduced endogenous c-Myc phosphorylation and the histological changes in the liver tissue samples (FIG. 7E).
Hydrodynamic Injection: Eμ-tTA/Tet-O-MYC transgenic mice (Shachaf et al. (2007) Blood 110: 2674-2684) (n=2) were removed from doxycycline treatment at 8 wk of age and underwent gavage with AT or PBS as described above. At 29 d after treatment, these two mice underwent imaging studies to characterize the liver phospho c-Myc level after hydrodynamic injection (Frame et al., (2001) Mol. Cell 7: 1321-1327) of the c-Myc sensor. […]

[8] = system: c-Myc; details: Hydbring et al. 2009; cited from earlier work
[9] = system: NFL-c-MycS62A mutant sensor; experiment: BLI of SKBR3 cells transiently transfected with the S62A mutant sensor; type: cell-based, human; details: PD98059 1 h
Experimental: FIG. 14A is a digital image showing the NFL-c-Myc WT construct or the NFL-c-MycS62A mutant construct transiently transfected into SKBR3 cells with GSK 35-433-CFL construct and subjected to PD98059 of indicated concentration for 1 h, followed by BLI.
FIG. 14B is a graph showing FL activity normalized to co-transfected RL activity and the total protein content and plotted against the drug concentration.
These differential signal inhibitions also were correlated with the decreased endogenous c-Myc phosphorylation level, as shown in FIG. 6A.

Compound | complemented FL activity [1] | reduction in complemented FL activity compared between drugs ([2]; SK ST cells normalized to SK FST cells) | complemented FL activity [2] | c-Myc-induced lymphomagenesis [3] | phosphorylation of c-Myc [3] | endogenous c-Myc phosphorylation level [4] | endogenous c-Myc phosphorylation level [5] | c-Myc phosphorylation levels in tumor tissue samples ([6]; 23 d after implantation, Western blot) | sensor signal (complemented FL activity of SK ST normalized to SK FST) ([6]; AT group) | tumor size ([6]; AT vs PBS group) | tumor growth ([6]; eventual effect of AT) | complemented FL activity of SK ST xenografts ([6]; from 10 d after implantation, gavage AT 20 μL 1.25 mM every other day) | FL activity of SK FST xenografts ([6]; up to about 18 d after implantation) | liver tumor size ([7]; 29-day treatment, AT vs PBS, one mouse each) | endogenous c-Myc phosphorylation in liver tissue samples ([7]; Western blot after 29-day treatment) | complemented FL activity in liver ([7]; on addition of D-Luc, AT vs PBS treated mouse) | c-Myc phosphorylation level in vitro [8] | response of mutant sensor to phosphorylation inhibition of c-Myc [9]
CC(C)c1c(C(=O)Nc2ccccc2)c(-c2ccccc2)c(-c2ccc(F)cc2)n1CC[C@@H](O)C[C@@H](O)CC(=O)O [AT, Atorvastatin] | dose-dependent increase | greater reduction in complemented FL activity with lower drug concentrations than did U0126 | dose-dependent reduction | preventing | reduce | increase | decreased | decreased | sustained decrease | no detectable difference | reduced tumor growth | increased only slightly | higher in the PBS-treated group compared with the AT-treated group | no significant difference | reduced | much lower | – | –
COc1cccc(-c2cc(=O)c3ccccc3o2)c1N [PD98059] | – | – | dose-dependent reduction | – | – | – | decreased | – | – | – | – | – | – | – | – | – | decrease | did not respond

Reference: patent publication US20120270914A1, “SPLIT-LUCIFERASE C-MYC SENSOR AND USES THEREOF” (THE BOARD OF TRUSTEES OF THE LELAND STANFORD JUNIOR …, priority 2011, published 2012)
